Consider 4 compounds from PMC3914206.

What all share (format): binding
Common to all, as to design: KINOMEscan: ABL1(F317L)-phosphorylated / KINOMEscan: ABL1(H396P)-nonphosphorylated / KINOMEscan: ABL1(H396P)-phosphorylated / KINOMEscan: ABL1(M351T)-phosphorylated / KINOMEscan: ABL1(T315I)-phosphorylated / KINOMEscan: ABL1-nonphosphorylated / KINOMEscan: ABL1-phosphorylated / KINOMEscan: ACVR2A / KINOMEscan: ACVR2B / KINOMEscan: ADCK3 / KINOMEscan: ADCK4 / KINOMEscan: AKT1 / KINOMEscan: AKT3 / KINOMEscan: ALK / KINOMEscan: ARK5 / KINOMEscan: AURKA / KINOMEscan: AURKC / KINOMEscan: BIKE / KINOMEscan: BMPR1A / KINOMEscan: BMPR1B / KINOMEscan: BMX / KINOMEscan: BRK / KINOMEscan: BRSK1 / KINOMEscan: BRSK2 / KINOMEscan: CAMK1 / KINOMEscan: CAMK1D / KINOMEscan: CAMK1G / KINOMEscan: CAMK2A / KINOMEscan: CAMK2B / KINOMEscan: AAK1 / KINOMEscan: CAMK2D / KINOMEscan: CAMK2G / KINOMEscan: ABL1(F317I)-nonphosphorylated / KINOMEscan: ABL1(F317I)-phosphorylated / KINOMEscan: ABL1(F317L)-nonphosphorylated: unit: % Ctrl
Common to all, as to settings: Compound Concentration 10 µM

Assay [1] addresses T1, panel of 442 kinases (Homo sapiens, UniProt P00519, M351T).
T1 construct: purchased KINOMEscan
From the text:
(§1) We assessed the selectivity of members of this scaffold using the KINOMEscan methodology across a near comprehensive panel of 442 kinases [[18,27]].

Assay [2] concerns the target T2, panel of 442 kinases (Homo sapiens, UniProt P31152).
T2 construct: purchased KINOMEscan
Source text: as §1

Assay [3] concerns the target T3, panel of 442 kinases (Homo sapiens, UniProt Q15303).
T3 construct: purchased KINOMEscan
Source text: as §1

T3 sequence (Q15303 26-1308): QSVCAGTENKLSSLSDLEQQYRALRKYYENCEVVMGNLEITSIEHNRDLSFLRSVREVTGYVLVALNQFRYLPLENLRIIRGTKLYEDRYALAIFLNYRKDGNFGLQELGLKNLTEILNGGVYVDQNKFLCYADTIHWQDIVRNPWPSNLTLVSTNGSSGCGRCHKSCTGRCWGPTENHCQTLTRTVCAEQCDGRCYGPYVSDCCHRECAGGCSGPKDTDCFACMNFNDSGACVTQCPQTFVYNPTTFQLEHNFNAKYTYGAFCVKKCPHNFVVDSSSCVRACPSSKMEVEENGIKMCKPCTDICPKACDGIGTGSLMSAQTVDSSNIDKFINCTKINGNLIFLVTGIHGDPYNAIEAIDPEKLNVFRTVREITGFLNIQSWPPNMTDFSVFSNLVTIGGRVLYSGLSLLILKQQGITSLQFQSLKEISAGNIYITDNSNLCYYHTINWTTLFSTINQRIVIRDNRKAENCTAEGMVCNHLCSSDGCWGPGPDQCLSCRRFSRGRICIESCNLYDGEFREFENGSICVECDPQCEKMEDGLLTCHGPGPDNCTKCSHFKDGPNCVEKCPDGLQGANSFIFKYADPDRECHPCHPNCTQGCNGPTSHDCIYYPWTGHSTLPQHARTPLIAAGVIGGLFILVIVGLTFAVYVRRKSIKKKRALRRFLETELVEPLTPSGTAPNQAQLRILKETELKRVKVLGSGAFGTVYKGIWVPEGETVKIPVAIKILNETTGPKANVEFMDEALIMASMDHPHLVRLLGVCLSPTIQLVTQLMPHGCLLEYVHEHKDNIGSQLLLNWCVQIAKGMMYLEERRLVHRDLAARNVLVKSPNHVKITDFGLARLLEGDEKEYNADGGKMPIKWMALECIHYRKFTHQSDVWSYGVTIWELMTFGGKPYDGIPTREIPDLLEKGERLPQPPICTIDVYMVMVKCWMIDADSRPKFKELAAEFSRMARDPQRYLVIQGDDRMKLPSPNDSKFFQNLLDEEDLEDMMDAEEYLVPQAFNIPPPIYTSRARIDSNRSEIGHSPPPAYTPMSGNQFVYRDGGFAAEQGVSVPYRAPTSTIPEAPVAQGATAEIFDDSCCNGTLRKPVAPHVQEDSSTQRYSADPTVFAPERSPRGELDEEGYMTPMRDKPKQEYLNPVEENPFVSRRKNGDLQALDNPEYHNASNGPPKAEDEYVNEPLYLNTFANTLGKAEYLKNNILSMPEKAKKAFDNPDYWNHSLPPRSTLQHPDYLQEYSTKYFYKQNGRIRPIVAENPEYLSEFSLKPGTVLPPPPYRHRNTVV
T2 sequence (P31152 whole entry): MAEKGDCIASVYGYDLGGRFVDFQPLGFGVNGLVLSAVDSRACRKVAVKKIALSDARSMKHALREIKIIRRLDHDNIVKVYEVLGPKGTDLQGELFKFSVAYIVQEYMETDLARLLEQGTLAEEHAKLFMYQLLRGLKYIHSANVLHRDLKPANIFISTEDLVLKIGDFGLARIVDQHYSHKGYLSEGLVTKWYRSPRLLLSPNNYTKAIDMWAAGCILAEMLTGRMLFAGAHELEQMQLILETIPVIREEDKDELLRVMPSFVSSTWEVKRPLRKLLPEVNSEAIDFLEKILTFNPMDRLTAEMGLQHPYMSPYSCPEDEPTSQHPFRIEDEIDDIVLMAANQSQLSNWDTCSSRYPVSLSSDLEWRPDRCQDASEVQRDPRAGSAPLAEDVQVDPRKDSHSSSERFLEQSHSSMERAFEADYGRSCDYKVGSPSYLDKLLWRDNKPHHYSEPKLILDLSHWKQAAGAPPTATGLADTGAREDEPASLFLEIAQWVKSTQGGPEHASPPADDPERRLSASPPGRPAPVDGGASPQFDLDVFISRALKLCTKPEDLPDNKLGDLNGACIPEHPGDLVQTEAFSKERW

`COc1cc(C(=O)N2CCC(N3CCN(C)CC3)CC2)ccc1Nc1ncc2c(n1)N(C)c1ccccc1C(=O)N2C` [15 (LRRK2-IN-1)]: the “KINOMEscan: ABL1(M351T)-phosphorylated” value on panel of 442 kinases [1] was determined as 94. Further, the “KINOMEscan: ERK4” value at panel of 442 kinases [2] worked out at 100. At panel of 442 kinases [3], the “KINOMEscan: ERBB4” value is on record as 100.
For the compound `COc1cc(C(=O)N2CCC(N3CCN(C)CC3)CC2)ccc1Nc1ncc2c(n1)N1CCc3cccc(c31)C(=O)N2C` [Compound 24], the “KINOMEscan: ABL1(M351T)-phosphorylated” value at panel of 442 kinases [1] worked out at 77.
Take `COc1cc(C(=O)N2CCC(N3CCN(C)CC3)CC2)ccc1Nc1ncc2c(n1)N(C1CCCC1)c1ccccc1C(=O)N2C` [Compound 25, 11-cyclopentyl-2-((2-methoxy-4-(4-(4-methylpiperazin-1-yl)piperidine-1-carbonyl)phenyl)amino)-5-methyl-5H-benzo[e]pyrimido[5,4-b][1,4]diazepin-6(11H)-one]: the “KINOMEscan: ABL1(M351T)-phosphorylated” value at panel of 442 kinases [1] came to 80. Besides, the “KINOMEscan: ERK4” value on panel of 442 kinases [2] is listed as 100. For the same compound, the “KINOMEscan: ERBB4” value on panel of 442 kinases [3] is 100.
Regarding `CCOc1cc(C(=O)N2CCC(N3CCN(C)CC3)CC2)ccc1Nc1ncc2c(n1)N(C1CCCC1)c1ccccc1C(=O)N2C` [Compound 26], the “KINOMEscan: ABL1(M351T)-phosphorylated” value on panel of 442 kinases [1] is on record as 89. Besides, the “KINOMEscan: ERK4” value at panel of 442 kinases [2] is 100. Also, the “KINOMEscan: ERBB4” value at panel of 442 kinases [3] is reported as 100.
